In patent US20080069785A1, “PEST-CONTROL COMPOSITIONS, AND METHODS AND PRODUCTS UTILIZING SAME” (priority 2004, published 2008):

Tested on: Horn fly (Haematobia irritans)
Assay: Treatment of livestock, control of flying insects (Example 23)
Format: in vivo
Description: The objective of this test was to evaluate the efficacy of the formulations in repelling flying insects from landing on and disturbing livestock. Ten animals were utilized for each treatment or control, with 120 cc/animal applied for each treatment. The experiment was performed by diluting the formulation to the appropriate concentration and spraying the formulation onto the livestock directly. One group had Ivermectin applied as a standard for comparison. Each group of animals was separated in the pasture by fencing. Counts were made immediately before treatments and then 1 day after treatment and 1 week after treatment. Every 2 weeks there was a retreatment and counts were repeated just prior to retreatment with same count cycle recurring through 2 week periods.
The flying insect evaluated was the Horn fly (Haematobia irritans).

Substance: Ivermectin
- Average number of flies landing on the animals (2-Aug, one day after treatment on August 1 (including Ivermectin group)): 4.8
- Average number of flies landing on the animals (6-Jul, one day after the initial treatment, 120 cc/animal, ten animals): 2.4
- Average number of flies landing on the animals (8-Aug, one week after treatment on August 1): 62.0
- Average number of flies landing on the animals (11-Jul, one week after initial treatment): 2.7
- Average number of flies landing on the animals (18-Jul, two weeks after initial treatment): 41.4
- Average number of flies landing on the animals (20-Jul, one day after retreatment on July 19 (except ivermectin)): 54.5
- Average number of flies landing on the animals (25-Jul, one week after retreatment on July 19 (except ivermectin)): 82.7
- Average number of flies landing on the animals (31-Jul, two weeks after retreatment on July 19 (except ivermectin)): 185.9
